{"source": "patent US20240049719A1", "about": "“ANTIMICROBIAL COATING” (HECOSOL GMBH, priority 2017, published 2024)", "key": {"E. coli": {"system": "E. coli", "experiment": "JIS test (JIS Z 2801 / ISO 22196) on coated Petri dishes, germ reduction of E. coli", "format": "cell-based", "excerpt": "The reduction factor RL is used to quantify the anti-microbial effectiveness. This reduction factor RL can be represented by the following mathematical relationship: RL=log (A/B). Here, A corresponds to an average value of so-called colony forming units (CFU) per ml on a reference surface without anti-microbial coating. Consequently, B corresponds to an average value of colony forming units (CFU) per ml on a reference surface with an anti-microbial coating according to the present invention. The internationally recognized JIS test (Japanese Industrial Standard Test, JIS Z 2801), which corresponds to ISO standard 22196 in Europe, is used for objective assessment of the germ reducing effect of surfaces. Thereby, Petri dishes coated with the test substance are first wetted with a germ suspension (e.g. […] Here, the experiments can be performed in the dark or under defined lighting conditions (e.g. by means of LED light at 1600 lux). At the end of the incubation, the number of surviving germs is determined and a reduction factor RL is calculated as described above."}, "[1]": {"system": "Artemia nauplii (brine shrimp)", "details": "in vivo", "excerpt": "(§1) Therefore, the toxicological behaviour of this coating towards daphnia (water flea) as well as Artemia nauplii (brine shrimp) was investigated. […] As a result, these animals show the same vitality in the coated plates as in the uncoated ones."}, "daphnia (water flea)": {"system": "daphnia (water flea)", "details": "in vivo", "excerpt": "as §1"}, "[2]": {"format": "physicochemical", "excerpt": "Furthermore, it is shown that the structure of the deposited TiO2*AgNO3 matrix is stable against 1000-times wiping with an anti-septic cloth (ethanol, benzalkonium chloride)."}, "Staphylococcus aureus": {"system": "Staphylococcus aureus", "experiment": "JIS test (JIS Z 2801 / ISO 22196) against Staphylococcus aureus", "format": "cell-based", "details": "in-vitro JIS test, 1600 lux", "protocol": "The internationally recognized JIS test (Japanese Industrial Standard Test, JIS Z 2801), which corresponds to ISO standard 22196 in Europe, is used for objective assessment of the germ reducing effect of surfaces.\nThereby, Petri dishes coated with the test substance are first wetted with a germ suspension (e.g. E. coli or Staphylococcus aureus), covered with a foil and then incubated at 35° C. and 95% humidity.\nHere, the experiments can be performed in the dark or under defined lighting conditions (e.g. by means of LED light at 1600 lux).\nAt the end of the incubation, the number of surviving germs is determined and a reduction factor RL is calculated as described above.\nThe anti-microbial effectiveness of this coating 10′ against the Staphylococcus aureus germ is shown in FIG. 14a after an incubation period of 24 hours under defined light conditions of about 1600 lux with RL=4.1."}}}
{"compound": "tungsten molybdate", "values": [{"measurement": "anti-microbial effectiveness (class in words)", "setting": "E. coli; after 1 h, 1600 lux", "result": "no antimicrobial effectiveness"}, {"measurement": "anti-microbial effectiveness (class in words)", "setting": "E. coli; within/after 24 h, 1600 lux", "result": "no antimicrobial effectiveness"}]}
{"compound": "[O]=[W](=[O])([O-])[O-].[Zn+2]", "note": "[ZnWO4, zinc tungstate]", "values": [{"measurement": "anti-microbial effectiveness (class in words)", "setting": "E. coli; within/after 24 h, 1600 lux", "result": "strong"}]}
{"compound": "[Na+].[Na+].[O]=[Mo](=[O])([O-])[O-]", "note": "[Na2MoO4, sodium molybdate]", "values": [{"measurement": "anti-microbial effectiveness (class in words)", "setting": "E. coli; within/after 24 h, 1600 lux", "result": "no anti-microbial effect"}]}
{"compound": "[Ag+].[Ag+].[O]=[Mo](=[O])([O-])[O-]", "note": "[Ag2MoO4, silver molybdate]", "values": [{"measurement": "anti-microbial effectiveness (class in words)", "setting": "E. coli; within/after 24 h, 1600 lux", "result": "strongly germ-reducing"}]}
{"compound": "[O]=[W](=[O])=[O]", "note": "[tungsten oxide]", "values": [{"measurement": "anti-microbial effectiveness (class in words)", "setting": "E. coli; within/after 24 h, 1600 lux", "result": "strong"}]}
{"compound": "O=[N+]([O-])[O-].[Ag+]", "note": "[AgNO3, silver nitrate]", "values": [{"measurement": "reduction factor RL", "setting": "E. coli; 5 min incubation, in the dark", "result": 4.3}, {"measurement": "reproducible RL values (range over repeated JIS tests)", "setting": "E. coli; JIS test", "result": "4.0-4.3"}]}
{"compound": "TiO2*AgNO3", "values": [{"measurement": "vitality of animals in coated vs uncoated plates", "setting": "[1]", "result": "same vitality"}, {"measurement": "vitality of animals in coated vs uncoated plates", "setting": "daphnia (water flea)", "result": "same vitality"}, {"measurement": "stability of deposited matrix structure against wiping", "setting": "[2]", "result": "stable"}]}
{"compound": "ammonium heptamolybdate [(NH4)6Mo7O24]", "values": [{"measurement": "reduction factor RL (anti-microbial effectiveness)", "setting": "E. coli; 1 h incubation, 1600 lux", "result": 1.4}, {"measurement": "reduction factor RL", "setting": "E. coli; 24 h incubation, 1600 lux", "result": 4.3}, {"measurement": "anti-microbial effectiveness (class in words)", "setting": "E. coli; after 1 h, 1600 lux", "result": "significant"}]}
{"compound": "[O]=[Mo](=[O])([O-])[O-].[Zn+2]", "note": "[ZnMoO4, zinc molybdate]", "values": [{"measurement": "reduction factor RL", "setting": "E. coli; 5 min incubation, in the dark", "result": 3.2}, {"measurement": "effectiveness (in words)", "setting": "Staphylococcus aureus", "result": "germ reducing effectiveness"}]}
